Consider 26 molecules from US20120264735A1 (priority 2009, published 2012).

pIC50: −log10 of the molar value.

In the assay the target is T1, c-Met kinase (recombinant c-Met) (Homo sapiens, UniProt P08581).
T1 construct: 0.27 nM recombinant c-Met
T1 sequence (P08581 25-1390): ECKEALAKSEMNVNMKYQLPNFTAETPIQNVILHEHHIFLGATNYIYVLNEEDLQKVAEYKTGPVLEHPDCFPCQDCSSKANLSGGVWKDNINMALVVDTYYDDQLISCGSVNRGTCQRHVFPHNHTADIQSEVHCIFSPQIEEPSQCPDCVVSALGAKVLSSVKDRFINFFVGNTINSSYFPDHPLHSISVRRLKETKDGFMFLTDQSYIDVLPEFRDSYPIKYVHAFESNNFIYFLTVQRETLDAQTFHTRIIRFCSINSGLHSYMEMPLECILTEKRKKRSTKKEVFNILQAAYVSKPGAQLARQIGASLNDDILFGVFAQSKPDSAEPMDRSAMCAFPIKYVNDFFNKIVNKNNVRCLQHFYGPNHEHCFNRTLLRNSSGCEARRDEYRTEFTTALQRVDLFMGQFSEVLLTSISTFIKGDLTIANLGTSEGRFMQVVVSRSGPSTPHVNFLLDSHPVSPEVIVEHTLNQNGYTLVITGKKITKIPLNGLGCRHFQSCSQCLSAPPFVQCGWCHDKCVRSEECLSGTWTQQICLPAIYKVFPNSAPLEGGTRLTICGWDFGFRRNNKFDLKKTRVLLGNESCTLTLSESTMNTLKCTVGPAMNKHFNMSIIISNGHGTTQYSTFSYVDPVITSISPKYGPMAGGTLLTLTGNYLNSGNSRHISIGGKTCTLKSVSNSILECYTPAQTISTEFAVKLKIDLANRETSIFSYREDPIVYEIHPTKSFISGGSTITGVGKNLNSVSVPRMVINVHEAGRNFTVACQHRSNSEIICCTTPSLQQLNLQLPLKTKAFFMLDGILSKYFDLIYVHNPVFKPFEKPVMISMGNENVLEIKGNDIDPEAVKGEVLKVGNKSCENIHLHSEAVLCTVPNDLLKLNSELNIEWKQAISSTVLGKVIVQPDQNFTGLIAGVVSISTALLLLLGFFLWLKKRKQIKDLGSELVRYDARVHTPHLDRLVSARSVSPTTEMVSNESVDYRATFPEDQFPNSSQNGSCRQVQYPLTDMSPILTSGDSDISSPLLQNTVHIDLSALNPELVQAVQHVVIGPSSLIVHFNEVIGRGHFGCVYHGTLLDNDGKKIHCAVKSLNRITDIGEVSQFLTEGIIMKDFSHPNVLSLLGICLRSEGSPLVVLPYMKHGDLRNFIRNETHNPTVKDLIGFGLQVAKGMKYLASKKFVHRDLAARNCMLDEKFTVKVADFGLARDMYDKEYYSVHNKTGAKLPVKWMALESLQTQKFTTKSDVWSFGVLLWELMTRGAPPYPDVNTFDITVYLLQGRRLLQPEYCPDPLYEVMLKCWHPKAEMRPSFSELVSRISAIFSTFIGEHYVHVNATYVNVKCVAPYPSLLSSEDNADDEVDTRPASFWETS
The experiment in a line: In vitro kinase assay I (homogeneous time-resolved fluorescence tyrosine kinase assay). In kind it is biochemical. A digest of the protocol:
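Biotinylated peptide (0.5 μM) phosphorylated by 0.2 nM recombinant c-Met with 50 μM MgATP, 60 min at room temperature, pH 7.4, 5% DMSO. EDTA stop; HTRF read with Eu-anti-phosphotyrosine antibody and streptavidin-APC. IC50 from 4-parameter logistic fit.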
As for `CC(C)COC(=O)Nc1cccc(Cc2nn(-c3ccc(-c4cnn(C)c4)cc3)ccc2=O)c1` [Example 732, 2-methylpropyl [3-({1-[4-(1-methyl-1H-pyrazol-4-yl)phenyl]-4-oxo-1,4-dihydropyridazin-3-yl}methyl)phenyl] carbamate], the pIC50 (usually the negative decadic logarithm of the IC50, by convention in mol/L) was 6.00 to 7.00.

For the molecule `COc1cnc(-c2cccc(Cc3nn(-c4cncc(C#N)c4)ccc3=O)c2)nc1` [Example 733, 5-{3-[3-(5-Methoxypyrimidin-2-yl)benzyl]-4-oxopyridazin-1(4h)-yl}pyridine-3-carbonitrile], the pIC50 was > 7.00. On to `CCn1cnc(-c2cccc(Cc3nn(-c4cccc(C(N)=O)c4)ccc3=O)c2)n1` [Example 734, 3-{3-[3-(1-Ethyl-1H-1,2,4-triazol-3-yl)benzyl]-4-oxopyridazin-1(4H)-yl}benzamide], for which the pIC50 is > 7.00. In the case of `CCCn1cnc(-c2cccc(Cc3nn(-c4cccc(C(N)=O)c4)ccc3=O)c2)n1` [Example 735, 3-{4-oxo-3-[3-(1-propyl-1H-1,2,4-triazol-3-yl)benzyl]pyridazin-1(4H)-yl}benzamide] it was 6.00 to 7.00; in that of `CCOc1cnc(-c2cccc(Cc3nn(-c4cccc(C(N)=O)c4)ccc3=O)c2)nc1` [Example 736, 3-[3-[3-(5-ethoxypyrimidin-2-yl)benzyl]-4-oxopyridazin-1(4H)-yl]benzamide], > 7.00. With `COCCOC(=O)Nc1cccc(Cc2nn(-c3cc(F)cc(C(N)=O)c3)ccc2=O)c1` [Example 737, 2-methoxyethyl [3-({1-[3-(aminocarbonyl)-5-fluorophenyl]-4-oxo-1,4-dihydropyridazin-3-yl}methyl)phenyl] carbamate], the pIC50 was > 7.00. Regarding `CCc1nc(-c2cccc(Cc3nn(-c4cnn(C)c4)ccc3=O)c2)no1` [Example 739, 3-[3-(5-Ethyl-1,2,4-oxadiazole-3-yl)benzyl]-1-(1-methyl-1H-pyrazol-4-yl)pyridazin-4(1H)-one], the negative logarithm of the IC50 (pIC50) is > 7.00. In the case of `CCCc1nc(-c2cccc(Cc3nn(-c4cnn(C)c4)ccc3=O)c2)no1` [Example 740, 1-(1-methyl-1H-pyrazol-4-yl)-3-[3-(5-propyl-1,2,4-oxadiazol-3-yl)benzyl]pyridazin-4(1H)-one] it was > 7.00.

Take `CCCCc1nc(-c2cccc(Cc3nn(-c4cnn(C)c4)ccc3=O)c2)no1` [Example 741, 3-[3-(5-butyl-1,2,4-oxadiazol-3-yl)benzyl]-1-(1-methyl-1H-pyrazol-4-yl)pyridazin 4(1H)-one]: the pIC50 was 6.00 to 7.00. With `CC(C)Cc1nc(-c2cccc(Cc3nn(-c4cnn(C)c4)ccc3=O)c2)no1` [Example 742, 3-{3-[5-(2-methylpropyl)-1,2,4-oxadiazol-3-yl]benzyl}-1-(1-methyl-1H-pyrazol-4-yl)pyridazin-4(1H)-one] the figure was 6.00 to 7.00; with `Cn1cc(-n2ccc(=O)c(Cc3cccc(-c4noc(CN5CCOCC5)n4)c3)n2)cn1` [Example 743, 1-(1-methyl-1H-pyrazol-4-yl)-3{3-[5-(morpholin-4-ylmethyl)-1,2,4-oxadiazol-3-yl]benzyl}pyridazin-4(1H)-one], 6.00 to 7.00.

`COCCc1nc(-c2cccc(Cc3nn(-c4cnn(C)c4)ccc3=O)c2)no1` [Example 744, 3-{3-[5-(2-methoxyethyl)-1,2,4-oxadiazol-3-yl]benzyl}-1-(1-methyl-1H-pyrazol-4-yl)pyridazin-4(1H)-one]: the pIC50 was 6.00 to 7.00. With `Cn1cc(-n2ccc(=O)c(Cc3cccc(-c4noc(CC5COC5)n4)c3)n2)cn1` [Example 745, 1-(1-methyl-1H-pyrazol-4-yl)-3-{3-[5-(oxetan-3-ylmethyl)-1,2,4-oxadiazol-3-yl]benzyl}pyridazin-4(1H)-one], the pIC50 was 6.00 to 7.00. In the case of `Cn1cc(-n2ccc(=O)c(Cc3cccc(-c4noc(CC5CCOCC5)n4)c3)n2)cn1` [Example 746] it was 6.00 to 7.00; in that of `Cn1cc(-n2ccc(=O)c(Cc3cccc(-c4ncc(O[C@H]5CC[C@H](O)CC5)cn4)c3)n2)cn1` [Example 747, 3-(3-{5-[(trans-4-hydroxycyclohexyl)oxy]pyrimidin-2-yl}benzyl)-1-(1-methyl-1H-pyrazol-4-yl)pyridazin-4(1H)-one], > 7.00.

With `Cn1cc(-n2ccc(=O)c(Cc3cccc(-c4ncc(O[C@H]5CC[C@@H](O)CC5)cn4)c3)n2)cn1` [Example 748, 3-(3-{5-[(cis-4-hydroxycyclohexyl)oxy]pyrimidin-2-yl}benzyl)-1-(1-methyl-1H-pyrazol-4-yl)pyridazin-4(1H)-one], the pIC50 is > 7.00. As for `COCCOc1cnc(-c2cccc(Cc3nn(-c4cnn(C)c4)cc(C)c3=O)c2)nc1` [Example 750, 3-{3-[5-(2-Methoxyethoxy)pyrimidin-2-yl]benzyl}-5-methyl-1-(1-methyl-1H-pyrazol-4-yl)pyridazin-4(1H)-one], the negative-log IC50 (pIC50) is > 7.00. `COCCOc1cnc(-c2cccc(Cc3nn(-c4cnn(C)c4F)cc(F)c3=O)c2)nc1` [Example 751, 5-Fluoro-1-(5-fluoro-1-methyl-1H-pyrazol-4-yl)-3-{3-[5-(2-methoxyethoxy)pyrimidin-2-yl]benzyl}pyridazin-4(1h)-one]: the pIC50 is > 7.00. With `O=c1ccn(-c2ccc(Cl)cc2)nc1Cc1ccc(O)cc1` [Example 754, 1-(4-Chlorophenyl)-3-(4-hydroxybenzyl)pyridazin-4(1H)-one] the figure was 6.00 to 7.00; with `CCOc1cnc(-c2cccc(Oc3nn(-c4cnn(C)c4)ccc3=O)c2)nc1` [Example 755, 3-[3-(5-Ethoxypyrimidin-2-yl)phenoxy]-1-(1-methyl-1H-pyrazol-4-yl)pyridazin-4(1H)-one], 5.52 to 6.00; with `CCOc1cnc(-c2cccc(Sc3nn(-c4cnn(C)c4)ccc3=O)c2)nc1` [Example 756, 3-{[3-(5-Ethoxypyrimidin-2-yl)phenyl]sulfanyl}-1-(1-methyl-1H-pyrazol-4-yl)pyridazin-4(1H)-one], 5.52 to 6.00. `O=c1ccn(-c2cc(F)cc(F)c2)nc1Cc1cccc(-c2ncc(O)cn2)c1` [compound 189, 1-(3,5-difluorophenyl)-3-[3-(5-hydroxypyrimidin-2-yl)benzyl]pyridazin-4(1H)-one]: the pIC50 was 6.00 to 7.00. In the case of `CCCn1cnc(-c2cccc(Cc3nn(-c4cnn(CCO)c4)ccc3=O)c2)n1` [compound 192, 1-[1-(2-hydroxyethyl)-1H-pyrazol-4-yl]-3-[3-(1-propyl-1H-1,2,4-triazol-3-yl)benzyl]pyridazin-4(1H)-one], the pIC50 is > 7.00. `Cn1cc(-n2ccc(=O)c(Cc3cccc(-c4ncc(CN5CCC(N)CC5)cn4)c3)n2)cn1` [compound 434, 3-(3-{5-[(4-aminopiperidin-1-yl)methyl]pyrimidin-2-yl}benzyl)-1-(1-methyl-1H-pyrazol-4-yl)pyridazin-4(1H)-one]: the pIC50 is > 7.00. As to `COCCN(C)c1cnc(-c2cccc(Cc3nn(-c4cnn(C)c4)ccc3=O)c2)nc1` [compound 457, 3-(3-{5-[(2-methoxyethyl) (methyl)amino]pyrimidin-2-yl}benzyl)-1-(1-methyl-1H-pyrazol-4-yl)pyridazin-4(1H)-one], the pIC50 is > 7.00. For the molecule `CCOc1cnc(-c2cccc(Cc3nn(-c4cnn(C)c4F)cc(F)c3=O)c2)nc1` [compound 752], the pIC50 is > 7.00.
